# Data: US8163771B2, “11 β-HSD1 modulators” (Exelixis, Inc., priority 2008, dated 2012)
# Molecular target: T1, recombinant human 11 β-HSD1 (Homo sapiens, UniProt P28845)
# T1 construct: made in house; host or cells: E. coli
# Test: 11 β-HSD1 SPA Assay (Scintillation Proximity Assay)
# Format: biochemical
# Method in brief: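 E. coli-expressed human enzyme (30-100 nM) with tritiated cortisone 40 nM and NADPH 1 mM in HEPES buffer pH7.4, 2 hours at room temperature. Stopped with protein A SPA beads carrying anti-cortisol antibody and glycyrrhetinic acid; counted after overnight incubation. IC50 from percent inhibition between no-enzyme and no-compound signals.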
# T1 sequence (P28845 whole entry): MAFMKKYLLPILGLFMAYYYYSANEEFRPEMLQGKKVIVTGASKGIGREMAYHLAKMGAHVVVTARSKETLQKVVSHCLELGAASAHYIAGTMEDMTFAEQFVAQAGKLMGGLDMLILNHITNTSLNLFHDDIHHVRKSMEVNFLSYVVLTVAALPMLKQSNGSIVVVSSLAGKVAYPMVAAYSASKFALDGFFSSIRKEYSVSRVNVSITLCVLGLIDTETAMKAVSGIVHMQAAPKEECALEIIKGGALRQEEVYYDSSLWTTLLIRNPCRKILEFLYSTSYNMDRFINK
row,Compound,IC50
1,"Cc1cc(F)ccc1OC(C)(C)C(=O)N[C@H]1C[C@H]2CC[C@@H](C1)N2c1ccc(S(N)(=O)=O)cn1 [Example 218, N-{8-[5-(aminosulfonyl)pyridin-2-yl]-8-azabicyclo[3.2.1]oct-3-endo-yl}-2-[(4-fluoro-2-methylphenyl)oxy]-2-methylpropanamide]",< 200 nM
2,"Cc1cc(F)ccc1OC(C)(C)C(=O)N[C@H]1C[C@H]2CC[C@@H](C1)N2c1ccc(S(C)(=O)=O)cc1 [Example 219, 2-[(4-fluoro-2-methylphenyl)oxy]-2-methyl-N-{8-[4-(methylsulfonyl)phenyl]-8-azabicyclo[3.2.1]oct-3-endo-yl}propanamide]",< 200 nM
3,COc1cc(F)ccc1OC(C)(C)C(=O)N[C@H]1C[C@H]2CC[C@@H](C1)N2c1ccc(S(C)(=O)=O)cn1 [Example 220],< 200 nM
4,"COc1cc(F)ccc1OC(C)(C)C(=O)N[C@H]1C[C@H]2CC[C@@H](C1)N2c1ccc(S(N)(=O)=O)cn1 [Example 221, N-{8-[5-(aminosulfonyl)pyridin-2-yl]-8-azabicyclo[3.2.1]oct-3-endo-yl}-2-{[4-fluoro-2-(methyloxy)phenyl]oxy}-2-methylpropanamide]",< 200 nM
5,"COc1cc(F)ccc1OC(C)(C)C(=O)N[C@H]1C[C@H]2CC[C@@H](C1)N2c1ccc(S(C)(=O)=O)cc1 [Example 222, 2-{[4-fluoro-2-(methyloxy)phenyl]oxy}-2-methyl-N-{8-[4-(methylsulfonyl)phenyl]-8-azabicyclo[3.2.1]oct-3-endo-yl}propanamide]",< 200 nM
6,"CC(C)(Oc1ccc(Cl)cc1F)C(=O)N[C@H]1C[C@H]2CC[C@@H](C1)N2c1ccc(S(C)(=O)=O)cc1 [Example 223, 2-[(4-chloro-2-fluorophenyl)oxy]-2-methyl-N-{8-[4-(methylsulfonyl)phenyl]-8-azabicyclo[3.2.1]oct-3-endo-yl}propanamide]",< 200 nM
7,"CC(C)(Oc1ccc(F)cc1F)C(=O)N[C@H]1C[C@H]2CC[C@@H](C1)N2c1ccc(S(C)(=O)=O)cc1 [Example 224, 2-[(2,4-difluorophenyl)oxy]-2-methyl-N-{8-[4-(methylsulfonyl)phenyl]-8-azabicyclo[3.2.1]oct-3-endo-yl}propanamide]",< 200 nM
8,"CC(C)(Oc1cc(F)c(F)cc1Cl)C(=O)N[C@H]1C[C@H]2CC[C@@H](C1)N2c1ccc(S(C)(=O)=O)cc1 [Example 225, 2-[(2-chloro-4,5-difluorophenyl)oxy]-2-methyl-N-{8-[4-(methylsulfonyl)phenyl]-8-azabicyclo[3.2.1]oct-3-endo-yl}propanamide]",< 200 nM
9,"CC(C)(Oc1ccc(F)c(Cl)c1)C(=O)N[C@H]1C[C@H]2CC[C@@H](C1)N2c1ccc(S(C)(=O)=O)cn1 [Example 226, 2-[(3-chloro-4-fluorophenyl)oxy]-2-methyl-N-{8-[5-(methylsulfonyl)pyridin-2-yl]-8-azabicyclo[3.2.1]oct-3-endo-yl}propanamide]",< 200 nM
10,"CC(C)(Oc1ccc(F)c(Cl)c1)C(=O)N[C@H]1C[C@H]2CC[C@@H](C1)N2c1ccc(S(N)(=O)=O)cn1 [Example 227, N-{8-[5-(aminosulfonyl)pyridin-2-yl]-8-azabicyclo[3.2.1]oct-3-endo-yl}-2-[(3-chloro-4-fluorophenyl)oxy]-2-methylpropanamide]",< 200 nM
11,"CC(C)(Oc1ccc(F)c(Cl)c1)C(=O)N[C@H]1C[C@H]2CC[C@@H](C1)N2c1ccc(S(C)(=O)=O)cc1 [Example 228, 2-[(3-chloro-4-fluorophenyl)oxy]-2-methyl-N-{8-[4-(methylsulfonyl)phenyl]-8-azabicyclo[3.2.1]oct-3-endo-yl}propanamide]",< 2000 nM
12,"CC(C)(Oc1ccc(Cl)cc1F)C(=O)N[C@H]1C[C@H]2CC[C@@H](C1)N2c1ccc(S(C)(=O)=O)cn1 [Example 229, 2-[(4-chloro-2-fluorophenyl)oxy]-2-methyl-N-{8-[5-(methylsulfonyl)pyridin-2-yl]-8-azabicyclo[3.2.1]oct-3-endo-yl}propanamide]",< 200 nM
13,"CC(C)(Oc1ccc(F)cc1)C(=O)N[C@H]1C[C@H]2CC[C@@H](C1)N2c1ccc(S(C)(=O)=O)cn1 [Example 230, 2-[(4-fluorophenyl)oxy]-2-methyl-N-{8-[5-(methylsulfonyl)pyridin-2-yl]-8-azabicyclo[3.2.1]oct-3-endo-yl}propanamide]",< 2000 nM
14,"CC(C)(Oc1cc(F)c(F)cc1Cl)C(=O)N[C@H]1C[C@H]2CC[C@@H](C1)N2c1ccc(S(C)(=O)=O)cn1 [Example 231, 2-[(2-chioro-4,5-difluorophenyl)oxy]-2-methyl-N-{8-[5-(methylsulfonyl)pyridin-2-yl]-8-azabicyclo[3.2.1]oct-3-endo-yl}propanamide]",< 200 nM
15,"CC(C)(Oc1cc(F)c(F)cc1F)C(=O)N[C@H]1C[C@H]2CC[C@@H](C1)N2c1ccc(S(C)(=O)=O)cn1 [Example 232, 2-methyl-N-{8-[5-(methylsulfonyl)pyridin-2-yl]-8-azabicyclo[3.2.1]oct-3-endo-yl}-2-[(2,4,5-trifluorophenyl)oxy]propanamide]",< 200 nM
16,"CC(C)(Oc1ccc(F)cc1)C(=O)N[C@H]1C[C@H]2CC[C@@H](C1)N2c1ccc(S(C)(=O)=O)cc1 [Example 233, 2-[(4-fluorophenyl)oxy]-2-methyl-N-{8-[4-(methylsulfonyl)phenyl]-8-azabicyclo[3.2.1]oct-3-endo-yl}propanamide]",< 2000 nM
17,"CC(C)(Oc1cc(F)c(F)cc1F)C(=O)N[C@H]1C[C@H]2CC[C@@H](C1)N2c1ccc(S(C)(=O)=O)cc1 [Example 234, 2-methyl-N-{8-[4-(methylsulfonyl)phenyl]-8-azabicyclo[3.2.1]oct-3-endo-yl}-2-[(2,4,5-trifluorophenyl)oxy]propanamide]",< 2000 nM
18,"CC(C)(Oc1ccc(F)c(Cl)c1Cl)C(=O)N[C@H]1C[C@H]2CC[C@@H](C1)N2c1ccc(S(C)(=O)=O)cc1 [Example 235, 2-[(2,3-dichloro-4-fluorophenyl)oxy]-2-methyl-N-{8-[4-(methylsulfonyl)phenyl]-8-azabicyclo[3.2.1]oct-3-endo-yl}propanamide]",< 200 nM
19,"CC(C)(Oc1cc(F)c(Cl)cc1Cl)C(=O)N[C@H]1C[C@H]2CC[C@@H](C1)N2c1ccc(S(C)(=O)=O)cn1 [Example 236, 2-[(2,4-dichloro-5-fluorophenyl)oxy]-2-methyl-N-{8-[5-(methylsulfonyl)pyridin-2-yl]-8-azabicyclo[3.2.1]oct-3-endo-yl}propanamide]",< 200 nM
20,"CC(C)(Oc1cc(F)c(Cl)cc1Cl)C(=O)N[C@H]1C[C@H]2CC[C@@H](C1)N2c1ccc(S(C)(=O)=O)cc1 [Example 237, 2-[(2,4-dichloro-5-fluorophenyl)oxy]-2-methyl-N-{8-[4-(methylsulfonyl)phenyl]-8-azabicyclo[3.2.1]oct-3-endo-yl}propanamide]",< 200 nM
21,"CC(C)(Oc1c(Cl)cc(F)cc1Cl)C(=O)N[C@H]1C[C@H]2CC[C@@H](C1)N2c1ccc(S(N)(=O)=O)cn1 [Example 238, N-{8-[5-(aminosulfonyl)pyridin-2-yl]-8-azabicyclo[3.2.1]oct-3-endo-yl}-2-[(2,6-dichloro-4-fluorophenyl)oxy]-2-methylpropanamide]",< 200 nM
22,"CC(C)(Oc1c(Cl)cc(F)cc1Cl)C(=O)N[C@H]1C[C@H]2CC[C@@H](C1)N2c1ccc(S(C)(=O)=O)cc1 [Example 239, 2-[(2,6-dichloro-4-fluorophenyl)oxy]-2-methyl-N-{8-[4-(methylsulfonyl)phenyl]-8-azabicyclo[3.2.1]oct-3-endo-yl}propanamide]",< 200 nM
23,"CC(C)(Oc1ccc(Cl)c(F)c1)C(=O)N[C@H]1C[C@H]2CC[C@@H](C1)N2c1ccc(S(C)(=O)=O)cn1 [Example 240, 2-[(4-chloro-3-fluorophenyl)oxy]-2-methyl-N-{8-[5-(methylsulfonyl)pyridin-2-yl]-8-azabicyclo[3.2.1]oct-3-endo-yl}propanamide]",< 200 nM
24,"CC(C)(Oc1ccc(Cl)c(F)c1)C(=O)N[C@H]1C[C@H]2CC[C@@H](C1)N2c1ccc(S(C)(=O)=O)cc1 [Example 241, 2-[(4-chloro-3-fluorophenyl)oxy]-2-methyl-N-{8-[4-(methylsulfonyl)phenyl]-8-azabicyclo[3.2.1]oct-3-endo-yl}propanamide]",< 2000 nM
25,"CC(C)(Oc1ccc(Cl)c(F)c1)C(=O)N[C@H]1C[C@H]2CC[C@@H](C1)N2c1ccc(S(N)(=O)=O)cn1 [Example 242, N-{8-[5-(aminosulfonyl)pyridin-2-yl]-8-azabicyclo[3.2.1]oct-3-endo-yl}-2-[(4-chloro-3-fluorophenyl)oxy]-2-methylpropanamide]",< 200 nM
26,"CC(C)(Oc1ccc(C(F)(F)F)cc1)C(=O)N[C@H]1C[C@H]2CC[C@@H](C1)N2c1ccc(S(C)(=O)=O)cn1 [Example 243, 2-methyl-N-{8-[5-(methylsulfonyl)pyridin-2-yl]-8-azabicyclo[3.2.1]oct-3-endo-yl}-2-{[4-(trifluoromethyl)phenyl]oxy}propanamide]",< 2000 nM
27,"CC(C)(Oc1ccc(C(F)(F)F)cc1)C(=O)N[C@H]1C[C@H]2CC[C@@H](C1)N2c1ccc(S(N)(=O)=O)cn1 [Example 244, N-{8-[5-(aminosulfonyl)pyridin-2-yl]-8-azabicyclo[3.2.1]oct-3-endo-yl}-2-methyl-2-{[4-(trifluoromethyl)phenyl]oxy}propanamide]",< 2000 nM
28,"CC(C)(Oc1ccc(C(F)(F)F)cc1)C(=O)N[C@H]1C[C@H]2CC[C@@H](C1)N2c1ccc(S(C)(=O)=O)cc1 [Example 245, 2-methyl-N-{8-[4-(methylsulfonyl)phenyl]-8-azabicyclo[3.2.1]oct-3-endo-yl}-2-{[4-(trifluoromethyl)phenyl]oxy}propanamide]",< 2000 nM
29,"CC(C)(Oc1ncc(C(F)(F)F)cc1Cl)C(=O)N[C@H]1C[C@H]2CC[C@@H](C1)N2c1ccc(S(N)(=O)=O)cn1 [Example 246, N-{8-[5-(aminosulfonyl)pyridin-2-yl]-8-azabicyclo[3.2.1]oct-3-endo-yl}-2-{[3-chloro-5-(trifluoromethyl)pyridin-2-yl]oxy}-2-methylpropanamide]",< 2000 nM
